The values that follow come from patent publication US10227332B2, “T-type calcium channel modulator and uses thereof” (UTI Limited Partnership, priority 2014, dated 2019).

One data set deals with wild type mice. The experiment in a line: Open-field test (locomotor activity). To be noted: 30 mg/kg, i.p. The format is in vivo, mouse. The text has this: (§1) During experiments, all efforts were made to minimize animal suffering according to the policies and recommendations of the International Association for the Study of Pain and all protocols used were approved by the Institutional Animal Care and Use Committee. For all experiments, either adult male C57BL/6J (wild-type) or CACNA1H knockout (Cav3.2 null) mice (20-25 g) purchased from Jackson Laboratories were used. There were a maximum of five mice per cage (30×20×15 cm) and access to food and water was unlimited. Temperature was kept at 23±1° C. on a 12 h light/dark cycle (lights on at 7:00 a.m.). Intraperitoneal (i.p.) injections of drugs were a constant volume of 10 ml/kg body weight. Intrathecal (i.t.) injections used volumes of 10 μl and were performed using the method described previously and carried out routinely in our laboratory. All drugs were dissolved in 1% or less DMSO, whereas control animals received PBS+1% DMSO. For each test, a different group of mice were used and only one experiment per mouse was performed.
Briefly, the apparatus consisted of a wooden box measuring 40×60×50 cm with a glass front wall. The floor was divided into 12 equal squares and the entire apparatus was placed in a sound free room. Animals were placed in the rear left square and left to explore freely and the number of squares crossed with all paws (crossing) in a 6 minute timeframe was counted. […]

In data set [1] the test system is wild-type mice, formalin-induced pain. The experiment in a line: Formalin test (acute nociceptive and inflammatory phases). The format is in vivo, mouse. Particulars: for inhibition of pain response time, first phase: formalin first phase; for inhibition of pain response time, second phase: formalin second phase.
Excerpt: as §1
Before experiments were performed, mice were left to acclimatize for at least 60 minutes. Animals were then injected intraplantarily (i.pl.) in the ventral surface of the right hindpaw with 20 μl of a formalin solution (1.25%) made up in PBS. Following i.pl. injections of formalin, individual animals were placed immediately into observation chambers and monitored from 0-5 min (acute nociceptive phase) and 15-30 min (inflammatory phase).

Data set [2] concerns mice with partial sciatic nerve injury. The data set can be described thus: Partial sciatic nerve injury (PNI)-induced neuropathic pain, mechanical hyperalgesia. The data set is classed as in vivo, mouse. To be noted: 30 mg/kg, i.p.; after treatment.
Excerpt: as §1
Before surgery, mice were anaesthetised with isoflurane (5% induction, 2.5% maintenance). […] Mechanical hyperalgesia was then evaluated in a time-dependant manner.
Mechanical hyperalgesia responses were recorded immediately before the surgeries (baselines), 14 days after the surgeries (0) and at various time points (0.5, 1, 2, 3 h) after treatment. […]

In a further data set the target is rCB1 (Rattus norvegicus (Rat), UniProt P20272). The experiment in a line: Radioligand competitive binding assay, CB1 receptor (NIMH PDSP). Particulars: means of three experiments run in triplicate. The text has this: (§2) The compounds was screened using whole-cell voltage clamp techniques for their ability to mediate tonic block of transiently expressed hCav3.2 channels (FIG. 1). Next, radioligand binding assays were used to assess the affinities of these compounds for both CB1 and CB2 receptors (Table 1).
(§3) CB1 and CB2 radioligand binding data were obtained using National Institute of Mental Health (NIMH) Psychoactive Drug Screening Program (PDSP) resources as described earlier.

For a further data set, the target named is hCB2 (Homo sapiens (Human), UniProt P34972). The data set can be described thus: Radioligand competitive binding assay, CB2 receptor (NIMH PDSP). To be noted: means of three experiments run in triplicate.
Excerpt: as §2, §3

Setting [3] is: 1-10 μg/i.t., 20 minutes before.
Where [4] appears, read: 10-100 mg/kg, i.p., 30 minutes prior.

On to `CCCCCn1c2ccccc2c2cc(C(=O)NCC3CCN(CC(=O)NC(C)(C)C)CC3)ccc21` [Compound 9, N-((1-(2-(tert-butylamino)-2-oxoethyl)piperidin-4-yl)methyl)-9-pentyl-9H-carbazole-3-carboxamide], for which the “locomotor activity in open-field test” value was “no significant motor deficits” with wild type mice and “did not significantly affect locomotor activity” with wild type mice (listed as compound 9). The “inhibition of pain response time, first phase” value in data set [1] (setting [3]) is recorded as 61±8%; in data set [1] (setting [4]) it was 47±2%. Moreover, the “inhibition of pain response time, second phase” value was 76±10% in data set [1] (setting [3]) and 66±48% in data set [1] (setting [4]). Moreover, the “duration of attenuation of mechanical hyperalgesia” value in data set [2] was over 3 h.
`CCCCCn1c2ccccc2c2cc(C(=O)NCC3CCNCC3)ccc21` [Compound 7, 9-Pentyl-N-(piperidin-4-ylmethyl)-9H-carbazole-3-carboxamide]: at rCB1, the “rCB1 Ki” value is recorded as “n.b”. Moreover, the “hCB2 Ki” value on hCB2 was “n.b”.
